One data set concerns C. reinhardtii. Put plainly: Effect of copper on activity of metal-hydrazone complexes: growth inhibition of C. reinhardtii in TAP Cu minus / TAP Cu plus medium (Example 13). Type of data set: cell-based, Chlamydomonas reinhardtii. The following applies: for % Inhn. Minus Copper Observed / % Inhn. Plus Copper Observed: C. reinhardtii growth inhibition; for % Inhn. Minus Copper Observed: TAP Cu minus medium; for % Inhn. Plus Copper Observed / % Inhn. Plus Copper Predicted: TAP Cu plus medium; for % Inhn. Plus Copper Predicted: calculated by Colby formula from minus-copper result and inhibition by copper chloride alone. As to the method: In vitro toxicity assays against C. reinhardtii CC-1928 (wild type mt+137c green in dark subclone) obtained from the Chlamydomonas Resource Center at Duke University were conducted using TAP liquid growth medium described by Gorman and Levine Proc. Natl. Acad. Sci. USA 1965, 54, 1665-1669 except that CuSO4.5H2O, normally included as a component of Hutner's trace element stock solution (Hutner et al. Proc. Am. Philos. Soc. 1950, 94, 152-170), was omitted. The TAP medium lacking Cu (TAP Cu minus) was prepared by adding 400 mg NH4Cl, 10 mL of 100× Tris-Acetate (242 g Tris-base and 100 mL glacial acetic acid in 1000 mL milli Q water), and 8.3 mL of 120.5× phosphate buffer (14.34 g K2HPO4 and 7.26 g KH2PO4 in 1000 mL milli Q water) to milli Q water to make a total volume of 1 liter. The medium was treated with 0.5 g Chelex 100 resin (Bio-Rad Analytical grade, 50-100 mesh, sodium form, cat#142-2822) by stirring at room temperature for 1 hour. 900 mL were decanted and 45.9 mg of CaCl2.2H2O, 90 mg of MgSO4.7H2O and 0.9 mL Hutner's trace elements lacking CuSO4.5H2O were added and the solution was filter-sterilized. Medium containing copper (TAP Cu plus) was prepared by adding CuCl2.2H2O to the TAP Cu minus medium at 20 μM. Test compounds were dissolved in dimethylsulfoxide (DMSO) at 2 mg/mL then dilutions in TAP Cu minus and TAP Cu plus media were prepared in sterilized microcentrifuge tubes at 2 μg/mL. 100 μL aliquots of diluted compound were dispensed into flat-bottomed 96-well microtiter plates. C. reinhardtii was maintained under 12 h of light on TAP agar plates at 18° C. A loopful of cells was added to 50 mL of TAP Cu minus medium and the culture incubated with shaking at 200 rpm at 27° C. for 24 h. The culture (10 to 20 mL aliquot) was centrifuged in a bench centrifuge at 2000 rpm for 2 min. The resulting cell pellet was resuspended in 5 mL sterile milli Q water (which had been treated with Chelex 100 resin using 0.5 g resin per liter of water by stirring at room temperature for 1 h), and recentrifuged. The cells were resuspended in TAP Cu minus medium, and the suspension adjusted to 2×10^5 spores per mL. Microtiter plates containing compounds as described above were inoculated with 100 μL of this cell suspension and the plates incubated at 27° C. for 48 h before assessing algal growth by measuring light scattering in a NepheloStar plate-reader. Growth inhibition was determined by comparing growth in the presence of test compound with growth in control wells lacking test compound. The effect of copper on activity of metal-hydrazone complexes towards C. reinhardtii was evaluated by comparing their activity in TAP Cu minus and TAP Cu plus media as described in Example 10 (compound concentrations were selected which gave low inhibition in TAP Cu minus medium). Growth inhibition was determined by comparing growth in the presence of test compound with growth in control wells lacking test compound. Results for growth inhibition by test compounds in TAP Cu plus medium (% Inhn Plus Copper Observed) were compared with predicted values (% Inhn Plus Copper Predicted) that were calculated using the formula set forth by S. R. Colby in Weeds 1967, 15, 20-22 based on results obtained for the same compounds in TAP Cu minus medium (% Inhn Minus Copper Observed) and the inhibition attributed to copper chloride alone, as determined by comparing growth in TAP Cu minus and TAP Cu plus media without any test compound across experiments.

Where [1] appears, read: C. reinhardtii, test concn. 0.5 μg/mL.
[2] abbreviates: C. reinhardtii, test concn. 0.25 μg/mL.

We go through 17 compounds from patent publication US8906829B2, “Synergistic algicidal compositions including hydrazone derivatives and copper” (Dow AgroSciences LLC, priority 2010, dated 2014).

The structures appear in SMILES notation.

As for `C/C(=N\NC(=O)c1ccc(C)cc1)c1cc(Cl)cc(Cl)c1O` [Compound 26], the melting point (in general, the temperature of the solid-liquid transition) is 262 to 264 °C.

Turning to `O=C(N/N=C/c1cc(Cl)cc(Cl)c1O)c1ccccc1.O=C(N/N=C/c1cc(Cl)cc(Cl)c1O)c1ccccc1.[Cl-].[Cl-].[Cu+2]` [Compound 76], in the data set on C. reinhardtii (test concn. 0.5 μg/mL), the “% Inhn. Minus Copper Observed” value stood at 3% and the “% Inhn. Plus Copper Observed” value turned out to be 89%. Also, the “% Inhn. Plus Copper Predicted” value in the data set with C. reinhardtii (setting [1]) is given as −10%. Take `C/C(=N\NC(=O)c1ccc(Cl)cc1)c1cc(Cl)cc(Cl)c1O` [Compound 12]: the melting point lay within 260 to 262 °C. For `O=C(N/N=C/c1cc(Cl)cc(Cl)c1O)c1ccccc1.O=C(N/N=C/c1cc(Cl)cc(Cl)c1O)c1ccccc1.[Cl-].[Cl-].[Mn+2]` [Compound 77], in the data set with C. reinhardtii (test concn. 0.5 μg/mL), the “% Inhn. Minus Copper Observed” value is given as −5% and the “% Inhn. Plus Copper Observed” value was found to be 93%. Further, the “% Inhn. Plus Copper Predicted” value in the data set on C. reinhardtii (setting [1]) is given as −18%.

As for `[Cl][Cu][Cl]` [CuCl2, Copper chloride, reference compound], the “% Inhn. attributed to copper chloride alone” value in the data set on C. reinhardtii (C. reinhardtii, CuCl2 10 μM, growth in TAP Cu plus vs TAP Cu minus medium without test compound, across experiments) was −12.9%.

`O=C(N/N=C/c1ccc(Cl)c(Cl)c1O)c1ccccc1` [Compound 21] showed a melting point of 249 to 252 °C.

The compound `O=C(N/N=C/c1cc(C(F)(F)F)cc(C(F)(F)F)c1O)c1ccc(Cl)cc1` [Compound 32] gave a melting point of 233 to 236 °C.

Take `O=C(N/N=C/c1c(Cl)ccc(Cl)c1O)c1ccc(Cl)cc1` [Compound 45]: the melting point lay in the range of 271 to 273 °C. For the compound `O=C(N/N=C/c1cc(Cl)cc(Cl)c1O)c1ccccc1.[Cl-].[Cl-].[Cu+2]` [Compound 75], in the data set on C. reinhardtii (test concn. 0.25 μg/mL), the “% Inhn. Minus Copper Observed” value is 18% and the “% Inhn. Plus Copper Observed” value amounted to 59%. The “% Inhn. Plus Copper Predicted” value with C. reinhardtii (setting [2]) is recorded as 5%. With `CC(=O)[O-].CC(=O)[O-].O=C(N/N=C/c1cc(Cl)cc(Cl)c1O)c1ccccc1.[Cu+2]` [Compound 72], in the data set on C. reinhardtii (test concn. 0.25 μg/mL), the “% Inhn. Minus Copper Observed” value was 79% and the “% Inhn. Plus Copper Observed” value is reported as 83%. Moreover, the “% Inhn. Plus Copper Predicted” value in the data set with C. reinhardtii (setting [2]) is 66%. As to `O=C(NN=Cc1cc(Cl)cc(Cl)c1O)c1ccccc1.O=C(NN=Cc1cc(Cl)cc(Cl)c1O)c1ccccc1.[Cl-].[Cl-].[Zn+2]` [Compound 78], in the data set on C. reinhardtii (test concn. 0.5 μg/mL), the “% Inhn. Minus Copper Observed” value is listed as −9% and the “% Inhn. Plus Copper Observed” value turned out to be 87%. The “% Inhn. Plus Copper Predicted” value in the data set on C. reinhardtii (setting [1]) is −22%. `O=C(N/N=C/c1cc(Cl)cc(Cl)c1O)c1ccccc1.O=C(N/N=C/c1cc(Cl)cc(Cl)c1O)c1ccccc1.O=S(=O)([O-])[O-].[Cu+2]` [Compound 74]: in the data set on C. reinhardtii (test concn. 0.25 μg/mL), the “% Inhn. Minus Copper Observed” value is reported as −9% and the “% Inhn. Plus Copper Observed” value is on record as 82%. Further, the “% Inhn. Plus Copper Predicted” value in the data set on C. reinhardtii (setting [2]) is −22%. With `O=C(N/N=C/c1cc(Cl)cc(C(F)(F)F)c1O)c1ccccc1` [Compound 27], the melting point was 225 to 226 °C. In the case of `O=C(N/N=C/c1cccc(Cl)c1O)c1ccc(Cl)cc1` [Compound 52], the melting point lay in the range of 257 to 260 °C. Still for that read-out and setting: under `O=C(N/N=C/c1c(C(F)(F)F)ccc(Cl)c1O)c1ccc(Cl)cc1` [Compound 56] stands 236 to 238 °C. With `CC(=O)[O-].CC(=O)[O-].O=C(N/N=C/c1cc(Cl)cc(Cl)c1O)c1ccccc1.O=C(N/N=C/c1cc(Cl)cc(Cl)c1O)c1ccccc1.[Cu+2]` [Compound 73], in the data set on C. reinhardtii (test concn. 0.25 μg/mL), the “% Inhn. Minus Copper Observed” value was 23% and the “% Inhn. Plus Copper Observed” value amounted to 87%. Moreover, the “% Inhn. Plus Copper Predicted” value with C. reinhardtii (setting [2]) is given as 10%. Compound `C/C(=N\NC(=O)c1cccc(C)c1)c1cc(Cl)cc(Cl)c1O` [Compound 25, 3-methyl-benzoic acid [1-(3,5-dichloro-2-hydroxyphenyl)-ethylidene]-hydrazide] came in with a melting point of 221 to 223 °C.
